The text below walks through data of US7521580B1, “Non-cytotoxic synthetic analogues of (1E, 6E)-1, 7-Bis (4-hydroxy-3-methoxyphenyl)-1, 6-heptadiene-3, 5-Dione and therapeutic applications thereof in cystic fibrosis” (Sami Labs Ltd., priority 2008, dated 2009).

A short description of series [1]: MTT assay of cellular cytotoxicity. It counts as cell-based. As to conditions: Chinese hamster, CHO-CFTR-wt cells, read-out: TC50; for CC50 at 2 h: 2 h incubation; for CC50 at 24 h: 24 h incubation. On the procedure: The cytotoxicity of (1E,6E)-1,7-Bis(3,5-di-tert-butyl-4-hydroxyphenyl)-1,6-heptadiene-3,5-dione (representative of the molecules disclosed in the present invention) was assessed by MTT assay [[3-(4,5-dimethylthiazol-2-yl)-2,5-diphenyl tetrazolium bromide, measuring cellular dehydrogenase activity on CHO-CFTR-wt cell lines. The test is based on the principle that water soluble tetrazolium yellow salt MTT (Sigma®) is converted on purple formazan by mitochondrial dehydrogenase. Cells were grown to confluency in 96-well plates. After incubation with the test compound for 2 or 24 hours, at 37° C., […] of MTT (5 mg/ml) was added. After 4 h of incubation, culture medium was removed and 100 μl of DMSO per well added to solubilise formazan crystals. Optical density (OD) was measured at 570 nm and subtracted to these measured at 630 nm. The amount of purple formazan produced by treated cells is compared with these of untreated control cells (vehicle), dose-response curves were derived using GraphPad Software.
(Formazan colour is commonly taken as a measure of viable cells.)

The target of series [2] is T1, F508del-CFTR chloride channel (Homo sapiens, UniProt P13569, DEL508-508).
T1 construct: endogenous in cells; host or cells: JME/CF15 human nasal airway epithelial cells
Briefly: Radiolabelled iodide efflux, F508del-CFTR chloride channel activity in JME/CF15 cells. It counts as cell-based. To be noted: 100 μM for 2 hours, stimulated with forskolin 10 μM plus genistein 30 μM. On the procedure:
(§1) The human nasal airway epithelial cells JME/CF15 were cultured in 24-well plates to 90% confluence. (1E,6E)-1,7-Bis(3,5-di-tert-butyl-4-hydroxyphenyl)-1,6-heptadiene-3,5-dione was added at 100 μM for 2 hours, at 37° C., 5% CO2. After incubation, chloride channel activity was assayed by measuring the rate of radio labelled iodide (125 l) efflux using liquid handling robots. The compound was tested in quadruplicate. Cells were incubated in physiologic solution containing 1 μM Kl and 1 μCi Na 125 l/ml during 1 h at 37° C. Extra cellular 125 l was removed by 3 washes of cells, and the loss of intracellular 125 l is determined by removing the medium with physiological solution every minute for up to 9 min 6. A cocktail of forskolin (10 μM) plus genistein (30 μM) was added at the third minute to stimulate F508del-CFTR chloride channel activity. Statistics and curves were derived at using Graph Pad Software.

The test system of series [3] is JME/CF15 cells. Briefly: Intracellular calcium mobilization (Fluo-4, confocal microscopy) in JME/CF15 cells. It counts as cell-based, human. To be noted: 100 μM during 2 h, absence of extra cellular calcium. An excerpt:
A number of epithelial chloride channels are calcium dependent. Therefore molecules which increase cytosolic calcium release or reduce calcium re-uptake by the intracellular stores may be beneficial to increase chloride secretion via a calcium-regulated chloride signaling pathway. Alternatively, a decrease in the activity calcium dependant proteins playing a vital role in retaining misfolded F508-CFTR in the ER may also seem a promising strategy in cystic fibrosis therapy.
JME/CF15 cells were loaded with 3 μM Fluo-4 acetoxymethyl (AM)ester for 20 min at room temperature in buffer solution containing: (in mM) 130 NaCl, 5.4 KCl, 2.5 CaCl2, 0.8 MgCl2, 5.6 glucose, 10 Hepes, pH 7.4 adjusted with Tris base), rinsed and allowed to equilibrate for 5-10 min. Ca2+ activity was recorded by confocal laser scanning microscopy using Bio-Rad MRC 1024 equipped with 15 mW Ar/Kr gas laser (Hemel Hempstead, UK). Maximal resolution was obtained with Olympus plan apo X60 oil, 1.4 NA, objective lens. Fluorescence signal collection was performed through the control software Lasersharp 3.2 (Bio-Rad). The resolution time was 30 s for the protocol in which cells are incubated 2 h in the presence of (1E,6E)-1,7-Bis(3,5-di-tert-butyl-4-hydroxyphenyl)-1,6-heptadiene-3,5-dione. All the experiments were performed at minimum on two different cell passages. […]

The target in series [4] is T2, wt-CFTR channel (Homo sapiens, UniProt P13569).
T2 construct: expressed in transfected cells; host or cells: CHO-CFTR-wt cells
Briefly: Iodide efflux, wild type CFTR chloride channel activity in CHO-CFTR-wt cells. It counts as cell-based. To be noted: 100 μM acute (no incubation) in presence of Forskolin 1 μM. On the procedure: as §1
To test the potency to stimulate wt-CFTR channel activity, CHO-CFTR-wt cells were cultured in 24-well plates to 90% confluence. Iodide efflux experiments were carried as described above. (1E,6E)-1,7-Bis(3,5-di-tert-butyl-4-hydroxyphenyl)-1,6-heptadiene-3,5-dione was added in the third minute in the presence or absence of Forskolin (1 μM). The compound was tested in acute (no incubation) at 100 μM in presence of Forskolin 1 μM. […]

A word on the melting point: it is the temperature, or range, at which the solid turns liquid.

T1 sequence (P13569 with tags, fused parts or gaps DEL508-508): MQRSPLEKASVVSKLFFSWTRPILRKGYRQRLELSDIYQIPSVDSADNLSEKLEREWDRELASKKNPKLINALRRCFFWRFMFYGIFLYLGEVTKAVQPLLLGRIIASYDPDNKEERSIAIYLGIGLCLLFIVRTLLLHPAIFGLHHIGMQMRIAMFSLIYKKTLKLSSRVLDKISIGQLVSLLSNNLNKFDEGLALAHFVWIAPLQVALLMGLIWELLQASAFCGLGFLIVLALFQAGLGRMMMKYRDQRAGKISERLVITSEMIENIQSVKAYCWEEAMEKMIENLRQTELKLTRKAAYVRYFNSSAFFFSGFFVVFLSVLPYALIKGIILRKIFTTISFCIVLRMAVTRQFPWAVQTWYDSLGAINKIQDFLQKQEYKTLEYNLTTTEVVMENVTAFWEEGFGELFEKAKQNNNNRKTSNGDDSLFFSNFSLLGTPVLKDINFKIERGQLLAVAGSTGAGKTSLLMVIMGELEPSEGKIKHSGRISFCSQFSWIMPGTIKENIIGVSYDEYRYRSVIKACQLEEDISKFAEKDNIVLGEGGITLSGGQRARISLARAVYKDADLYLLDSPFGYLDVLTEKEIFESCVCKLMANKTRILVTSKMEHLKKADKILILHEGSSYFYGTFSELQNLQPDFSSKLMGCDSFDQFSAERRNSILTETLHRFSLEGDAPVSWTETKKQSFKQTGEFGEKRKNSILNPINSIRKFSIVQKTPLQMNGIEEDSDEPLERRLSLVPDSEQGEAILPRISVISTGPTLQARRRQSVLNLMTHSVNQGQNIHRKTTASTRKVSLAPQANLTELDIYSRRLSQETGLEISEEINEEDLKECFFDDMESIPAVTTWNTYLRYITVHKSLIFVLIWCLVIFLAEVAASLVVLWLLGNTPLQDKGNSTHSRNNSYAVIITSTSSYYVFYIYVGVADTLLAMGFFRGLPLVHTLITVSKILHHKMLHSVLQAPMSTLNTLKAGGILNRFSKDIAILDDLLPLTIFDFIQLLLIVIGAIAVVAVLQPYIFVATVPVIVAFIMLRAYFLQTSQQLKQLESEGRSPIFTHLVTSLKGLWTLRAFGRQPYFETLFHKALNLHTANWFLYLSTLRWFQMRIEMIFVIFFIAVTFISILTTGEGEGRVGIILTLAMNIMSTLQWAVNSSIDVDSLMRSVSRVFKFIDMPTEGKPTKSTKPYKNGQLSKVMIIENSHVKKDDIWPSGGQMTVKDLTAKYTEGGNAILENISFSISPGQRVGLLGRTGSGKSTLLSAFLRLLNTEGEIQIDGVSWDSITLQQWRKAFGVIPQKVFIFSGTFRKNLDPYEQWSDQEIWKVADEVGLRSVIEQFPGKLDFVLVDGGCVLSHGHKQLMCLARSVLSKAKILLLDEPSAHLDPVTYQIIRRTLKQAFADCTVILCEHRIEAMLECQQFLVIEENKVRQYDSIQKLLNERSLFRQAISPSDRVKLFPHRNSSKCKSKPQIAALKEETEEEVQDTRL
T2 sequence (P13569 whole entry): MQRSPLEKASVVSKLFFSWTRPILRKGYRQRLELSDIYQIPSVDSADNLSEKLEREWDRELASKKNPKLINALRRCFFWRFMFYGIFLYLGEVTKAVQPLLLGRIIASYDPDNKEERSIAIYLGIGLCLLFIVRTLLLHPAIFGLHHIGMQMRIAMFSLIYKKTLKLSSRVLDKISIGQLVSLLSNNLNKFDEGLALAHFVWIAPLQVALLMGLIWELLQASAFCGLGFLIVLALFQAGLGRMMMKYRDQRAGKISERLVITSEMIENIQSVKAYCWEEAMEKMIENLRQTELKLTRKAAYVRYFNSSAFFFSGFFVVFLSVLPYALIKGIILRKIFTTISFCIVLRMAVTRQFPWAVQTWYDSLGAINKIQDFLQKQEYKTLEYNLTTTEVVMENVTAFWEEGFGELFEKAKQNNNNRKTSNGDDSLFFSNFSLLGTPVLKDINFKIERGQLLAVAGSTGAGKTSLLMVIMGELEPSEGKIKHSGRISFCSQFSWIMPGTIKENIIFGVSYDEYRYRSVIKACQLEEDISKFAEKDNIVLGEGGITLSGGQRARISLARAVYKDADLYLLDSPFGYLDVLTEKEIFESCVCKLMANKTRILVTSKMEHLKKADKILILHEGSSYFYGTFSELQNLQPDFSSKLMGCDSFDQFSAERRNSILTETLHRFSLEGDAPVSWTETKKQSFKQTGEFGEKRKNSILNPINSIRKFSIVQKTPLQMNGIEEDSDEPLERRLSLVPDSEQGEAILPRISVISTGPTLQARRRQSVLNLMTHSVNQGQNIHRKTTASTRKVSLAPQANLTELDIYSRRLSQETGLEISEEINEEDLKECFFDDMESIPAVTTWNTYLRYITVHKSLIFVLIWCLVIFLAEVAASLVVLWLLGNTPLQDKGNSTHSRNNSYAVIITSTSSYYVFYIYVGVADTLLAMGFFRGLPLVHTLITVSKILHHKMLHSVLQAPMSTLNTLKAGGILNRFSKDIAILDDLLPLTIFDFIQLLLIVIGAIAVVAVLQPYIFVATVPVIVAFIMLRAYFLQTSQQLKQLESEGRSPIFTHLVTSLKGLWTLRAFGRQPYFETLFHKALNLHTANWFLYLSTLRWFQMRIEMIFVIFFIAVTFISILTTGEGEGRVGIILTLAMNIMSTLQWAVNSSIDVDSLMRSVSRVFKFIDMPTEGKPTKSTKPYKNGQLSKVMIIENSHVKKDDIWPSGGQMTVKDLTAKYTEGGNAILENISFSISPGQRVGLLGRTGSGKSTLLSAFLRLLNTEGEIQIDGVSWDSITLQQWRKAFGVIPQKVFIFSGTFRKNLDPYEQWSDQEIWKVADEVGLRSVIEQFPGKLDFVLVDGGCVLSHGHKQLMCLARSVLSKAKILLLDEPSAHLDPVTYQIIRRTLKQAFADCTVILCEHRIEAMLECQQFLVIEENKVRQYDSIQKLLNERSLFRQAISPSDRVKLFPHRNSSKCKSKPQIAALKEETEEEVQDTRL

Consider `COc1cc(/C=C/C(=O)CC(=O)/C=C/c2ccc(O)c(OC)c2)ccc1O` [Curcumin, (1E,6E)-1,7-Bis(4-hydroxy-3-methoxyphenyl)-1,6-heptadiene-3,5-dione, reference compound], for which, in series [1], the CC50 at 2 h turned out to be 50.1 ± 1.1 µM and the CC50 at 24 h is 42.7 ± 1 µM.

Compound `CC(C)(C)c1cc(/C=C/C(=O)CC(=O)/C=C/c2cc(C(C)(C)C)c(O)c(C(C)(C)C)c2)cc(C(C)(C)C)c1O` [(1E,6E)-1,7-Bis(3,5-di-tert-butyl-4-hydroxyphenyl)-1,6-heptadiene-3,5-dione] showed a melting point of 192 to 196 °C. The “restoration of F508del-CFTR protein at the plasma membrane (iodide efflux)” value in series [2] is listed as “able to restore the F508del-CFTR protein at the plasma membrane of CF cells”. In addition, in series [1], the CC50 at 2 h was more than 100 µM and the CC50 at 24 h was more than 100 µM. In addition, the “intracellular mobilization of Ca2+” value in series [3] is recorded as “induced intracellular mobilization of Ca^2+”. Further, the “wild-type CFTR chloride channel activity” value in series [4] was “insignificant wild-type CFTR chloride channel activity”.
